# Experimental data published in patent US20220016196A1, “Aloe Based Compositions Comprising Polysaccharides and Polyphenols for Regulation of Homeostasis of Immunity” (Unigen, Inc., priority 2020, published 2022).
# Assays:
# [1] = system: Pseudomonas aeruginosa (PA) infected hyperoxic mice; assay: Hyperoxia-induced mortality in Pseudomonas aeruginosa (PA)-infected mice; assay type: in vivo, mouse
# [2] = system: Pseudomonas aeruginosa; assay: Bacterial clearance in the airways in hyperoxic and PA infected mice; assay type: in vivo, mouse; details: 24 hours after infection
# [3] = system: hyperoxic and PA infected mice; assay: Oxidative stress-exacerbated acute lung injury induced by bacterial infection (BAL total protein, biomarkers, histology); assay type: in vivo, mouse; details: hyperoxia + PA infected mice, Resveratrol 50 mg/kg
# [4] = system: HMGB1; assay: Inhibition of hyperoxia-induced HMGB1 release from macrophages (ELISA); assay type: cell-based, mouse; details: RAW 264.7 cells, 95% O2 24 hours, test substance 25 μg/mL, ELISA of supernatant
# Protocol: Macrophages cultured under hyperoxic conditions experience oxidative stress, causing them to secrete HMGB1 to the cell culture media. To determine the efficacy of the Aloe-based composition and its components in reducing the accumulation of extracellular HMGB1 of cultured macrophages, RAW 264.7 cells were exposed for 24 hours to either 21% O2 (room air (RA)), or 95% O2 in the presence or absence of test substance at 25 μg/mL concentration. HMGB1 levels in cell culture supernatants were determined by ELISA at a single concentration of test substance in duplicate. The data are expressed as mean±SEM of one experiment assayed in duplicate. *p<0.05, **p<0.01, ****p<0.0001 compared to macrophages treated under hyperoxia with vehicle only. Control cells were treated with Sodium Salicylate (SS) as a positive control, which attenuates hyperoxia-compromised macrophage function and oxidative-stress-induced HMGB 1 release.
# [5] = system: RAW 264.7 cells; assay: MTT assay in cultured RAW 264.7 cells under hyperoxia; assay type: cell-based, mouse; details: RAW 264.7, 95% O2 24 hours
# Protocol: Cell viability was determined by MTT assay.
# [6] = system: RAW 264.7 cells; assay: Hyperoxia-induced dysfunctional macrophage phagocytosis assay; assay type: cell-based, mouse; details: RAW 264.7, 95% O2 24 hours, beads per cell as percent increase
# Protocol: RAW 264.7 cells either remained at room air (21% O2) or were exposed to 95% O2 for 24 hours in the presence of test substance. Cells were then incubated with FITC-labeled latex mini-beads for 1 hour and stained with phalloidin and DAPI to visualize the actin cytoskeleton and nuclei, respectively. For quantification of phagocytic activity, at least 200 cells per group were counted and the numbers of beads per cell were represented as a percent increase compared to the 21% 02 (0 μg/ml) control group. Each value represents the mean±SEM of 3 independent experiments for each group, in duplicate. *, P<0.05 compared to the 21% O2 (0 μg/ml) control group.
# [7] = system: HaCaT cells; assay: Cytotoxicity (CCK viability) in HaCaT cells; assay type: cell-based, human; details: 25 μg/mL
# Protocol: (§1) HaCaT cells (Human immortal keratinocyte cells) were seeded at a density of 8,000 cells/well in 96-well tissue culture plates and treated for 24 hours with test substance at 25 μg/mL. Cytotoxicity was evaluated to remove false positives (CCK >80% viability). DCFH-DA (a fluorescent probe) was added to cells to detect ROS production and incubated at 37° C. for 25 minutes. After exposure to UV irradiation under the solar simulator (Sol-UV-6 Solar Simulator) with ultraviolet filter for 10 minutes, the fluorescence value was measured at 488 nm (excitation) and 525 nm (emission) by Multimode Reader. Vitamin C was used as positive control treated at 40 μg/mL with 43% reduction of ROS production. At 25 μg/mL, Rosmarinic acid decreased ROS generation by 24%, compared to the level of UV exposed HaCaT cells. Organic extracts (OE) were tested at 50 μg/mL, while aqueous extracts were tested at 100 μg/mL. Fractions or pure compounds were tested at 25 μg/mL in this assay.
# [8] = system: HSF cells (Human fibroblasts); assay: DNA damage of human fibroblasts induced by hydrogen peroxide (γH2AX); assay type: cell-based; details: γH2AX staining, H2O2 1 mM 4 h
# Protocol: HSF cells (Human fibroblasts) were seeded in 96-well tissue culture plates and incubated at 37° C. and in 5% CO2 and 95% air with test substances. Treated HSF cells were subjected to DNA damage by incubating with H2O2 at a concentration of 1 mM for 4 h, then immunostained for γH2AX, a phosphorylated histone that is a marker of DNA double strand breaks. DAPI was used to stain the cell nucleus. Pictures taken by Image Xpress and analyzed with Meta Xpress. Catechin (100 μg/ml) was used as positive control with 70% reduction of DNA damage, as assessed by quantification of γH2AX staining. […]. Rosmarinic acid reduced DNA damage by 24% at 25 μg/mL.
# [9] = DPPH assay, 100 mg/L (Hu et al., 2003); cited from earlier work
# [10] = system: acute ear edema induced by tetradecanoyl phorbol acetate (TPA); details: acute ear edema induced by TPA (Cuellar et al 1997); cited from earlier work
# [11] = system: HaCaT cells; assay: UVA&UVB induced ROS assay in HaCaT cell; assay type: cell-based, human; details: positive control, 40 μg/mL
# Protocol: as §1, with “Cytotoxicity was evaluated to remove false positives (CCK >80% viability).” left out, “Vitamin C was used as positive control treated at 40 μg/mL with 43% reduction of ROS production. At 25 μg/mL, Rosmarinic acid decreased ROS generation by 24%, compared to the level of UV exposed HaCaT cells.” left out
# [12] = molecular target: phospholipase A2; details: phospholipase A2 from snake venom (Cuéllar et al 1996); cited from earlier work
compound,measurement,setting,value
Oc1ccc(C=Cc2cc(O)cc(O)c2)cc1 [resveratrol],mortality rate,"[1]; 7 days prophylactic treatment, hyperoxia 2 days, PA inoculated, 24 hours post-inoculation",27%
same,Dead animals,"[1]; RES 50 mg/kg, hyperoxia + PA inoculation, 11 total animals",3
same,Mortality %,"[1]; RES 50 mg/kg, hyperoxia + PA inoculation, 24 hours post-inoculation",27.27%
same,"Bacterial load in the airways, ×10^5 CFU/mL (Mean ± SE)","[2]; RES 50 mg/kg, hyperoxic and PA infected mice",2.4 ± 0.7 ×10^5 CFU/mL
same,bacterial load in the airways vs hyperoxia + vehicle (O2),"[2]; UP360 500 mg/kg, Resveratrol 50 mg/kg oral, >99% O2 48 hours, PA intranasal",airway bacterial load was significantly lower
same,lung injury,[3],significantly reduce lung injury
O=C(/C=C/c1ccc(O)c(O)c1)O[C@H](Cc1ccc(O)c(O)c1)C(=O)O [Rosmarinic acid],inhibition at 25 µg/mL,"[4]; Mus musculus, RAW264.7",73%
same,MTT (% reduction),[5]; 12 μg/mL,5.63%
same,MTT (% reduction),[5]; 25 μg/mL,13.47%
same,MTT (% reduction),[5]; 50 μg/mL,20.03%
same,MTT (% reduction),[5]; 100 μg/mL,20.53%
same,Phagocytosis,[6]; 12 μg/mL,51.00%
same,Phagocytosis,[6]; 25 μg/mL,74.35%
same,Viability (%),[7],57%
same,reduction of DNA damage,[8]; 25 μg/mL,24%
Cc1cc(C(C)(C)C)c(O)c(C(C)(C)C)c1 [butylated hydroxytoluene],radical scavenging activity,[9],70.52%
CC(=O)Cc1cc(=O)c2c(C)cc(O)c([C@@H]3O[C@H](CO)[C@@H](O)[C@H](O)[C@H]3O)c2o1 [Aloesin],HMGB1 inhibition,[4],52.47
hydrotumulosic acid,IC50,[10],0.68 nmol/ear
O=C1O[C@H]([C@@H](O)CO)C(O)=C1O [Vitamin C],reduction of ROS production,[11],43%
Cc1c(C)c2c(c(C)c1O)CC[C@@](C)(CCC[C@H](C)CCC[C@H](C)CCCC(C)C)O2 [a-tocopherol],radical scavenging activity,[9],65.20%
C=C(CC[C@@H](C(=O)O)[C@H]1[C@H](O)C[C@@]2(C)C3=CC[C@H]4C(C)(C)[C@@H](O)CC[C@]4(C)C3=CC[C@]12C)C(C)C [dehydrotumulosic acid],IC50,[12],845 µM
Catechin,reduction of DNA damage,[8]; 100 μg/ml,70%
